Assay results: article PMC5766581, “NF-κB inducing kinase is a therapeutic target for systemic lupus erythematosus” (Nature Communications, 2018)

Tests used:
Experiment in all cases: SelectScreen kinase panel
Type in all cases: binding
WEE1 = biological target: T1, WEE1 (Homo sapiens, UniProt P30291)
T1 construct: purchased Invitrogen / ThermoFisher SelectScreen
Method: (§1) The ability of NIK to catalyze the hydrolysis of adenosine-5′-triphosphate (ATP) was monitored using the Transcreener ADP (adenosine-5′-diphosphate) assay (Bell Brook Labs, Fitchburg, WI). Purified human NIK kinase domain (a.a. 340–694) (0.5 nM) or mouse NIK kinase domain (a.a. 329–675) (1 nM) derived from a baculovirus-infected insect cell expression system was incubated with test compounds for 0.5–2 h in 50 mM HEPES buffer (pH 7.2) containing 10 mM MgCl2, 2 mM dithiothreitol, 10 μM ATP, 0.01% Triton X-100, 0.1% gamma-globulins from bovine blood, 1% dimethylsulfoxide (DMSO), 7 μg/mL ADP antibody and 5 nM ADP-MR121 633 tracer. Reactions were quenched by the addition of 20 mM EDTA and 0.01% Brij 35. The tracer bound to the antibody was displaced by the ADP generated during the NIK reaction, which caused a decrease in fluorescence polarization that was measured by laser excitation at 633 nm with a Fluorescence Correlation Spectroscopy Plus reader (Evotec AG). Equilibrium dissociation constant (Ki) values for NIK inhibitors are calculated from plots of activity vs. inhibitor concentration using Morrison’s quadratic equation that accounts for the potential of tight binding, and by also applying the conversion factor that accounted for competitive inhibition and the concentration of substrate used in the assay relative to its Michaelis constant (Km). The Ki values with hPKD1 (PKCμ) were determined using the same assay conditions as for NIK. Ki measurements for hKHS1 and hLRRK2, as well as broad kinase selectivity profiling for SMI1, were carried out by Invitrogen using their SelectScreen kinase assay panel (ThermoFisher Scientific, Madison, WI). The vendor offered two types of kinase activity assays, a peptide phosphorylation assay (Z′-LYTE) and an ADP quantitation assay (Adapta), as well as one type of kinase ATP site competitive binding assay (LanthaScreen). See vendor web site for technology and protocol details for each specific kinase assay.
(§2) The average % Inhibition of each kinase is reported (Supplementary Table 1).

MKNK2 = biological target: T2, MKNK2 (Homo sapiens, UniProt Q9HBH9)
T2 construct: purchased Invitrogen / ThermoFisher SelectScreen
Method: as §1, §2

DDR1 = biological target: T3, DDR1 (Homo sapiens, UniProt Q08345)
T3 construct: purchased Invitrogen / ThermoFisher SelectScreen
Method: as §1, §2

CAMKK1 = biological target: T4, CAMKK1 (Homo sapiens, UniProt Q8N5S9)
T4 construct: purchased Invitrogen / ThermoFisher SelectScreen
Method: as §1, §2

ZAK = biological target: T5, ZAK (Homo sapiens, UniProt Q9NYL2)
T5 construct: purchased Invitrogen / ThermoFisher SelectScreen
Method: as §1, §2

BMPR1A = biological target: T6, BMPR1A (Homo sapiens, UniProt P36894)
T6 construct: purchased Invitrogen / ThermoFisher SelectScreen
Method: as §1, §2

CAMKK2 = biological target: T7, CAMKK2 (Homo sapiens, UniProt Q96RR4)
T7 construct: purchased Invitrogen / ThermoFisher SelectScreen
T7 sequence (Q96RR4 whole entry): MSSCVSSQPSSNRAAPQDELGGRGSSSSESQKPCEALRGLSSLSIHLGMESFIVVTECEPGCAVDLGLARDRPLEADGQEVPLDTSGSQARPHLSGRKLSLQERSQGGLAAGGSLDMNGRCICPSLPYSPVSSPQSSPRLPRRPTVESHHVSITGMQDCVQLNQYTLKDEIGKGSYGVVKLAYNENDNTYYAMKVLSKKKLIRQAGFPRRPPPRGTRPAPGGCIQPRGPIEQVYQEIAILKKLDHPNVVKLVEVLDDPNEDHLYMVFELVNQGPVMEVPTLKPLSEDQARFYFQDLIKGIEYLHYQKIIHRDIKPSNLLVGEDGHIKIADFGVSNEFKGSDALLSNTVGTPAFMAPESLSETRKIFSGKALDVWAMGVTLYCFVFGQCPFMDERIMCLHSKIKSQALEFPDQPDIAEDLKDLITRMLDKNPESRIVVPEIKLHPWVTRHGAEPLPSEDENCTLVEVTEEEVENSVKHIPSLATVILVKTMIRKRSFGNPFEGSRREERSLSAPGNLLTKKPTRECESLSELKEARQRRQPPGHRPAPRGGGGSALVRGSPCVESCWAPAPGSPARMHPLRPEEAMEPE
Method: as §1, §2

EphA3 = biological target: T8, EphA3 (Homo sapiens, UniProt P29320)
T8 construct: purchased Invitrogen / ThermoFisher SelectScreen
Method: as §1, §2

MLK2 = biological target: T9, MLK2 (Homo sapiens, UniProt Q02779)
T9 construct: purchased Invitrogen / ThermoFisher SelectScreen
Method: as §1, §2

RIPK2 = biological target: T10, RIPK2 (Homo sapiens, UniProt O43353)
T10 construct: purchased Invitrogen / ThermoFisher SelectScreen
T10 sequence (O43353 whole entry): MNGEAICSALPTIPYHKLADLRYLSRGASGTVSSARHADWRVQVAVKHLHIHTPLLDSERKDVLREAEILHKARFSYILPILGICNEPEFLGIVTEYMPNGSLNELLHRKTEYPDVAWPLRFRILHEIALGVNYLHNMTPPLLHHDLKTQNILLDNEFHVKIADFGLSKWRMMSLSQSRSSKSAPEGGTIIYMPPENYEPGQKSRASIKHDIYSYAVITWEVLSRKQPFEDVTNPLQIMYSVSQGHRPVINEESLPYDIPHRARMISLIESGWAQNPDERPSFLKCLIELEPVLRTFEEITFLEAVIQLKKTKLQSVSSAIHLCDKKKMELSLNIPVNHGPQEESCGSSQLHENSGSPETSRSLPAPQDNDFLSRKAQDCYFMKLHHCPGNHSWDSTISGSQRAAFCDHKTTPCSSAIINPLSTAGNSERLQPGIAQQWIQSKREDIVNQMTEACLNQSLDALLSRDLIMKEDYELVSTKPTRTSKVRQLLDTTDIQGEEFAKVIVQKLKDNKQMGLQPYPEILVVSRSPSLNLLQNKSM
Method: as §1, §2

TTK = biological target: T11, TTK (Homo sapiens, UniProt P33981)
T11 construct: purchased Invitrogen / ThermoFisher SelectScreen
Method: as §1, §2

ASK1 = biological target: T12, ASK1 (Homo sapiens, UniProt Q99683)
T12 construct: purchased Invitrogen / ThermoFisher SelectScreen
Method: as §1, §2

B -Raf = biological target: T13, B -Raf (Homo sapiens, UniProt P15056)
T13 construct: purchased Invitrogen / ThermoFisher SelectScreen
Method: as §1, §2

MKK6 = biological target: T14, MKK6 (Homo sapiens, UniProt P52564)
T14 construct: purchased Invitrogen / ThermoFisher SelectScreen
T14 sequence (P52564 whole entry): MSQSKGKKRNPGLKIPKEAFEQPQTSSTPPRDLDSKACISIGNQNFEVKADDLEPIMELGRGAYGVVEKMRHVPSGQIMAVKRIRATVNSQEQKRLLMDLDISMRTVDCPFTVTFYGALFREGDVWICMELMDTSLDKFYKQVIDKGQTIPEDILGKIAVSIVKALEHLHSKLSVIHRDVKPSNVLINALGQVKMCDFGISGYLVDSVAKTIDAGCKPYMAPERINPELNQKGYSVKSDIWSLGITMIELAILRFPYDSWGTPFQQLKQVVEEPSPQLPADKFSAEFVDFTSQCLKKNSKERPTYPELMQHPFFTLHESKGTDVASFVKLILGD
Method: as §1, §2

RAF1 (Y340D, Y341D) = biological target: T15, RAF1 (Y340D, Y341D) (Homo sapiens, UniProt P04049, Y340D/Y341D)
T15 construct: purchased Invitrogen / ThermoFisher SelectScreen
Method: as §1, §2

ALK2 = biological target: T16, ALK2 (Homo sapiens, UniProt Q04771)
T16 construct: purchased Invitrogen / ThermoFisher SelectScreen
Method: as §1, §2

STK33 = biological target: T17, STK33 (Homo sapiens, UniProt Q9BYT3)
T17 construct: purchased Invitrogen / ThermoFisher SelectScreen
T17 sequence (Q9BYT3 whole entry): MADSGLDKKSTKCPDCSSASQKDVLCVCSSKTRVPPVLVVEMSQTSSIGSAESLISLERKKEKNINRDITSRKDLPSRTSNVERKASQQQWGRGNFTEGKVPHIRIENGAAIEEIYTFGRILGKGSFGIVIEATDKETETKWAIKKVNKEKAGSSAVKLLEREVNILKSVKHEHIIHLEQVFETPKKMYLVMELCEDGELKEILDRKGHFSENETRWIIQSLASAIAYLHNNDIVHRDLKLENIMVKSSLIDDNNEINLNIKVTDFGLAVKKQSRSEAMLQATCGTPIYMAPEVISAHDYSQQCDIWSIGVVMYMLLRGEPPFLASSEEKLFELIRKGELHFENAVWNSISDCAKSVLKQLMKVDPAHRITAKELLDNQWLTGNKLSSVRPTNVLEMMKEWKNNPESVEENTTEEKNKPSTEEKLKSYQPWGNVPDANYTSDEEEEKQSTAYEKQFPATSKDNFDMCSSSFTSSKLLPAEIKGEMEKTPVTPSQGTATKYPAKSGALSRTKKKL
Method: as §1, §2

JNK3 = biological target: T18, JNK3 (Homo sapiens, UniProt P53779)
T18 construct: purchased Invitrogen / ThermoFisher SelectScreen
Method: as §1, §2

DRAK1 = biological target: T19, DRAK1 (Homo sapiens, UniProt Q9UEE5)
T19 construct: purchased Invitrogen / ThermoFisher SelectScreen
Method: as §1, §2

CDK8/cyclinC = biological target: T20, CDK8/cyclinC (Homo sapiens, UniProt P49336)
T20 construct: purchased Invitrogen / ThermoFisher SelectScreen
Method: as §1, §2

JNK2 = biological target: T21, JNK2 (Homo sapiens, UniProt P45984)
T21 construct: purchased Invitrogen / ThermoFisher SelectScreen
T21 sequence (P45984 whole entry): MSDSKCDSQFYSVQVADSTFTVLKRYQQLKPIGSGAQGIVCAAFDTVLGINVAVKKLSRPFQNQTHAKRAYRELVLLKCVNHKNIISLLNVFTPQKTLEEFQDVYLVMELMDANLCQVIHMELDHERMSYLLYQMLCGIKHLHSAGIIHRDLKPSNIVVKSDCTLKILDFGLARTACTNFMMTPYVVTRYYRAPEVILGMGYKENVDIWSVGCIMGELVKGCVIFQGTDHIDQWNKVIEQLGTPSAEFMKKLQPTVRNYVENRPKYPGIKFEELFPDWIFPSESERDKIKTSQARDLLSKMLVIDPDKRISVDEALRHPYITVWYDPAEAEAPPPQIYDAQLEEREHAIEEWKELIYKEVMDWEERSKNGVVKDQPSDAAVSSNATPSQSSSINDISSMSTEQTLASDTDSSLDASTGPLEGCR
Method: as §1, §2

TEC = biological target: T22, TEC (Homo sapiens, UniProt P42680)
T22 construct: purchased Invitrogen / ThermoFisher SelectScreen
Method: as §1, §2

LIMK1 = biological target: T23, LIMK1 (Homo sapiens, UniProt P53667)
T23 construct: purchased Invitrogen / ThermoFisher SelectScreen
Method: as §1, §2

TGFBR1 = biological target: T24, TGFBR1 (Homo sapiens, UniProt P36897)
T24 construct: purchased Invitrogen / ThermoFisher SelectScreen
Method: as §1, §2

WNK2 = biological target: T25, WNK2 (Homo sapiens, UniProt Q9Y3S1)
T25 construct: purchased Invitrogen / ThermoFisher SelectScreen
T25 sequence (Q9Y3S1 whole entry): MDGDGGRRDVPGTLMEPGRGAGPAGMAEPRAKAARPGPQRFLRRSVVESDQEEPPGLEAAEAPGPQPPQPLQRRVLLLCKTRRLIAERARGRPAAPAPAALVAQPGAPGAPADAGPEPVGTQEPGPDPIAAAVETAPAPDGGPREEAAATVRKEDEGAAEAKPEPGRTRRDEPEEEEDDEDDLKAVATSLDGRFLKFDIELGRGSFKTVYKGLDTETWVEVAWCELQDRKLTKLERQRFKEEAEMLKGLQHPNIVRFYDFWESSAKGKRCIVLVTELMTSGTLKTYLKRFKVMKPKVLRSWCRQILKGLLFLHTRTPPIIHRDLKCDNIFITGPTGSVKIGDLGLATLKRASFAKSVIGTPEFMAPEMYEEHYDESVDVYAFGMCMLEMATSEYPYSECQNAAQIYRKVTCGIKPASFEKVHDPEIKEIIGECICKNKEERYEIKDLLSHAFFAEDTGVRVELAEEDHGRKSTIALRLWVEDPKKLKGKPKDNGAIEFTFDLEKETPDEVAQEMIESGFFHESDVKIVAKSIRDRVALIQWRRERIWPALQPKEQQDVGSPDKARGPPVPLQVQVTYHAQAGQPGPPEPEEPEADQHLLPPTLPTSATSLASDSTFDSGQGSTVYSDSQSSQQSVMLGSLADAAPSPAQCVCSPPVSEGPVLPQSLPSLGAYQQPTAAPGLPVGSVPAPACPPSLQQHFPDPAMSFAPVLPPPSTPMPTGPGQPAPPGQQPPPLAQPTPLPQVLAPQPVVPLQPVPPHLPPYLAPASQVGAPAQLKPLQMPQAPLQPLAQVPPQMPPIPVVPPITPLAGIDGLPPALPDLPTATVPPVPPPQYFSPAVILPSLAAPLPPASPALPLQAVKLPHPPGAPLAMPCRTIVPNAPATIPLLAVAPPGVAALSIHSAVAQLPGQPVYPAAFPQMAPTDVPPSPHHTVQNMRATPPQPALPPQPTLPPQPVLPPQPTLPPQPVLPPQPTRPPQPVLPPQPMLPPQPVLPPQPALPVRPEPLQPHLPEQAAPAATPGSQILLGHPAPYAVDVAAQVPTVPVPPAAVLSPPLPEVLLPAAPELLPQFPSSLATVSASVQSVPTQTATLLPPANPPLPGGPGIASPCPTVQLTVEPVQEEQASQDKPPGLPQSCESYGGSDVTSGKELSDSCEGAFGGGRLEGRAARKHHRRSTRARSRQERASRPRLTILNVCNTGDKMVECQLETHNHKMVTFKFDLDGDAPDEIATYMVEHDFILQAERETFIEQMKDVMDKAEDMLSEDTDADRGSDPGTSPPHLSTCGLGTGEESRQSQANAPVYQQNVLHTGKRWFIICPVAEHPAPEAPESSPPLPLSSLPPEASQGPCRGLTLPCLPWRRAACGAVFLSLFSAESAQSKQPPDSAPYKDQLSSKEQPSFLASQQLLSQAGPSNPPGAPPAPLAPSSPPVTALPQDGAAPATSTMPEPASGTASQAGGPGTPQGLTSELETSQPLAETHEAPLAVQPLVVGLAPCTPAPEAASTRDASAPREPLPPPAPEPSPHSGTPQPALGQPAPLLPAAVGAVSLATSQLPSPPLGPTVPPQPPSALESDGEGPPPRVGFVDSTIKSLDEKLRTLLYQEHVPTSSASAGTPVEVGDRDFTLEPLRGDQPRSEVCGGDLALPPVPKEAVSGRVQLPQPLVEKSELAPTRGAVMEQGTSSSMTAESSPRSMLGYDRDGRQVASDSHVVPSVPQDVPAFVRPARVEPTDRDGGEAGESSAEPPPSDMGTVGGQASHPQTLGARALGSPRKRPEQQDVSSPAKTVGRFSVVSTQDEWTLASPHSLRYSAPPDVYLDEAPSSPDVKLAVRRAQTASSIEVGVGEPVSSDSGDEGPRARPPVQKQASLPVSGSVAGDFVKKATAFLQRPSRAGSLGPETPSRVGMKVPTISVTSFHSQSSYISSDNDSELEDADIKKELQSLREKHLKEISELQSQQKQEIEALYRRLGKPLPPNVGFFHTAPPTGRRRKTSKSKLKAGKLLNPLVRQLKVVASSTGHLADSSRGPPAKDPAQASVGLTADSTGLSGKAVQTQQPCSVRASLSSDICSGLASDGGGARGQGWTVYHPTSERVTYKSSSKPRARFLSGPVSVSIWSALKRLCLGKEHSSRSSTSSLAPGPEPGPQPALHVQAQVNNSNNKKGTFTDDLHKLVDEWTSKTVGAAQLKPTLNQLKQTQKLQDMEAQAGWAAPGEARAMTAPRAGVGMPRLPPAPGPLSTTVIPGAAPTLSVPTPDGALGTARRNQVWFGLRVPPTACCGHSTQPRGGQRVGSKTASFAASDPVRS
Method: as §1, §2

MEK3 = biological target: T26, MEK3 (Homo sapiens, UniProt P46734)
T26 construct: purchased Invitrogen / ThermoFisher SelectScreen
T26 sequence (P46734 whole entry): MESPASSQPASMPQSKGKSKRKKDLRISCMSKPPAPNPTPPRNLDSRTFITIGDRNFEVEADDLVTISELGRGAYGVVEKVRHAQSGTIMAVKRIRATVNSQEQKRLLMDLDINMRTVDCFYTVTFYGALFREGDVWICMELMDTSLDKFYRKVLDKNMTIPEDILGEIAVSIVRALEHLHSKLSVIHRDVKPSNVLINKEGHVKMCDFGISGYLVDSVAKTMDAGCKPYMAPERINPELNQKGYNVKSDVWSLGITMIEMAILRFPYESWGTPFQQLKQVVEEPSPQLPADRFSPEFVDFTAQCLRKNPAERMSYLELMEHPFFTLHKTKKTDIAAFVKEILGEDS
Method: as §1, §2

AVCR2B = biological target: T27, AVCR2B (Homo sapiens, UniProt Q13705)
T27 construct: purchased Invitrogen / ThermoFisher SelectScreen
Method: as §1, §2

MEK1 = biological target: T28, MEK1 (Homo sapiens, UniProt Q02750)
T28 construct: purchased Invitrogen / ThermoFisher SelectScreen
Method: as §1, §2

STK16 = biological target: T29, STK16 (Homo sapiens, UniProt O75716)
T29 construct: purchased Invitrogen / ThermoFisher SelectScreen
Method: as §1, §2

NLK = biological target: T30, NLK (Homo sapiens, UniProt Q9UBE8)
T30 construct: purchased Invitrogen / ThermoFisher SelectScreen
Method: as §1, §2

SLK = biological target: T31, SLK (Homo sapiens, UniProt Q9H2G2)
T31 construct: purchased Invitrogen / ThermoFisher SelectScreen
Method: as §1, §2

MYLK3 = biological target: T32, MYLK3 (Homo sapiens, UniProt Q32MK0)
T32 construct: purchased Invitrogen / ThermoFisher SelectScreen
Method: as §1, §2

CLK4 = biological target: T33, CLK4 (Homo sapiens, UniProt Q9HAZ1)
T33 construct: purchased Invitrogen / ThermoFisher SelectScreen
Method: as §1, §2

SMILES: COc1cc(C(N)=O)nc(-c2cccc(C#C[C@]3(O)CCN(C)C3=O)c2)c1 [NIK SMI1]
- inhibition at 1 µM (WEE1): 6.2%
- inhibition at 1 µM (MKNK2): 23.3%
- inhibition at 1 µM (DDR1): 2.7%
- inhibition at 1 µM (CAMKK1): -11.6%
- inhibition at 1 µM (ZAK): -0.8%
- inhibition at 1 µM (BMPR1A): -3.9%
- inhibition at 1 µM (CAMKK2): 1.1%
- inhibition at 1 µM (EphA3): -5.2%
- inhibition at 1 µM (MLK2): 9.9%
- inhibition at 1 µM (RIPK2): -0.1%
- inhibition at 1 µM (TTK): 13.2%
- inhibition at 1 µM (ASK1): 3.8%
- inhibition at 1 µM (B -Raf): -0.3%
- inhibition at 1 µM (MKK6): 13.2%
- inhibition at 1 µM (RAF1 (Y340D, Y341D)): -1.5%
- inhibition at 1 µM (ALK2): 5.8%
- inhibition at 1 µM (STK33): 3.9%
- inhibition at 1 µM (JNK3): 4.6%
- inhibition at 1 µM (DRAK1): 3.4%
- inhibition at 1 µM (CDK8/cyclinC): 7.8%
- inhibition at 1 µM (JNK2): 3%
- inhibition at 1 µM (TEC): 1.1%
- inhibition at 1 µM (LIMK1): 16.8%
- inhibition at 1 µM (TGFBR1): -9.4%
- inhibition at 1 µM (WNK2): 1.7%
- inhibition at 1 µM (MEK3): 11.4%
- inhibition at 1 µM (AVCR2B): 0.8%
- inhibition at 1 µM (MEK1): 43.1%
- inhibition at 1 µM (STK16): 1%
- inhibition at 1 µM (NLK): 4.2%
- inhibition at 1 µM (SLK): 2.6%
- inhibition at 1 µM (MYLK3): 45.3%
- inhibition at 1 µM (CLK4): 13.7%
